Laboratory results: article PMC7766758, “Furan-Conjugated Tripeptides as Potent Antitumor Drugs” (Biomolecules, 2020)
Values after ≈ are worked out from the molar mass of the structure shown. “Also recorded” adds a separate entry of the source. Like-named read-outs stand apart in the source and are kept apart here. Square brackets hold non-standard residues; d marks the D form. Side chains are listed from the residue outwards. Peptide text beside a SMILES is read from it. * marks the point of attachment. 2Nal = N[C@@H](Cc1ccc2ccccc2c1)C(=O)O; 2Furoyl = O=C(c1ccco1)*

Assays:
[1] = tested on: human cervical cancer cells HeLa; test: Anti-proliferative assay (MTT or resazurin), HeLa; format: cell-based; conditions: for IC50 ± SD (µg/mL), proliferation of HeLa cells / IC50: 48 h
Method: The anti-proliferative effect of peptides was tested using various normal and cancer cells. Human cancer cells used were human cervical cancer cells HeLa (ATCC® CCL-2), and human breast cancer cells MCF-7 (ATCC® HTB22) and MDA-MB-231 (ATCC® HTB-26). Normal cells used were NIH-3T3 (ATCC® CRL-1658), human normal endothelial cells (human umbilical vein endothelial cells, HUVEC) (ECACC, Sigma-Aldrich, Lyon, France), and human lung fibroblasts IMR-90 (ATCC® CCL186). NIH-3T3, HeLa, IMR-90, MDA-MB-231, and MCF-7 cells were grown in DMEM supplemented with 10% fetal bovine serum (FBS), 1% L-glutamine, and 1% antibiotics (all from Invitrogen (Carlsbad, CA, USA)). HUVEC cells were cultured in specific medium (endothelial cell growth medium from Sigma Aldrich, Lyon, France). Cells were routinely grown on 25 cm^2 flasks. For anti-proliferative assay, cells were detached from flasks using a trypsin-EDTA solution (from Thermofisher, Illkirch-Graffenstaden, France). After counting using a Malassez chamber, cells were diluted in appropriate culture media and seeded into 96-well cell culture plates (Greiner bio-one, Paris, France) at approximately 6000 cells/well. Cells were then treated with increasing concentration of conjugates diluted in appropriate medium. Doxorubicin was used as positive control. After 48 h medium was aspirated and the number of viable cells was colorimetrically measured as previously described. Briefly, after exposure to increasing concentrations of conjugates or doxorubicin for 48 h, cell viability was measured using the standard MTT or resazurin assay. For the MTT assay, the supernatant was discarded and 50 µL of 0.5 mg/mL MTT dye was then added to each well and plates were further incubated for 4 h at 37 °C. The MTT was aspirated and 100 µL of DMSO was then added to each well. The extent of MTT reduction to formazan in cells was calculated by measuring the absorbance at 540 nm, using a spectrophotometer (Spectra Max plus, Molecular Devices, CA, USA). For the resazurin assay, the supernatant was discarded and 100 µL of resazurin solution (from Sigma Aldrich, Lyon, France) was added to each well. After 4 h of incubation at 37 °C, fluorescence associated to resazurin biotransformation by live cells was measured using spectrofluorometer (excitation 530 nm/emission 590 nm). In both cases, the antiproliferative activity was recorded as concentration causing 50% growth inhibition (IC50). Experiment was performed in triplicate (n = 3).

[2] = tested on: HeLa cells; test: Rhodamine 123 and propidium iodide staining assay; format: cell-based, human
Method: As mentioned above, HeLa cells were grown in DMEM medium and seeded 3000 cells/well into 96-well plates. A stock solution of rhodamine 123 (Sigma-Aldrich, St Louis, MO, USA) and prodidium iodide (Sigma-Aldrich, St Louis, MO, USA) at concentrations of 10 and 1 mg/mL were prepared in pure DMSO and water, respectively.
The next day, 1 mL of the fresh media with 2% FBS was made, in which rhodamine 123 and propidium iodide dyes were added to make final concentrations of 10 and 5 µg/mL, respectively. Compounds 4, 4a, and 4b at four different concentrations (10, 20, 30, and 40 µg/mL) were mixed with 1 mL of this media. Old media from the plates were aspirated from each well and 200 µL of fresh media containing compounds, rhodamine 123, and PI dye were added in their respective wells in triplicate and incubated at 37 °C in a 5% CO2 incubator. After 1 and 2 h incubation, media was aspirated from the wells and washed with PBS. These cells were visualized for rhodamine 123 and PI dye staining in a Nikon Eclipse TE2000-U fluorescence microscope at 200× magnification in FITC and TXR filters respectively. Images of cells at the same location for both dyes were captured. Rhodamine 123 and PI staining give green and red fluorescence, respectively. These two different colored images were then merged with one another using ImageJ software (NIH, Bethesda, MD, USA).

[3] = tested on: HeLa cells; test: Atomic force microscopy of HeLa cells; format: cell-based, human; conditions: 20 µg/mL, 24 h
Method: HeLa cells were grown in Dulbecco’s modified eagle medium (DMEM) supplemented with 10% fetal bovine serum. After 70–80% confluency was achieved, cells were treated with conjugate 4 at 20 µg/mL and incubated for 24 h at 37 °C in a 5% CO2 incubator. The next day, these cells were visualized using a microscope. In the untreated control, cells were healthy and attached, therefore, the cells were trypsinized to detach the cells from the wells, and then collected in a sterile Eppendorf tube. In conjugate 4 treated wells, cells were dead and detached. These dead cells were freely floating and therefore the cells were collected without using the trypsinization process in an Eppendorf tube. These cells collected in Eppendorf tubes were washed twice with sterile distilled water and then 10 µL of suspension was deposited into mica chips coated with 0.01% poly-L-lysine, to allow the cells attachment. This cell suspension was then dried at room temperature. Soon after, these mica chips were inserted inside an Agilent Technologies 5500 microscope and the chips were scanned at tapping mode with a silicon nitride cantilever. After finding cells in the chips, these cells were further scanned under a higher magnification. Atomic force microscopy (AFM) topography images were obtained, and we processed them in pseudo color images to differentiate the images according to the height. […]

[4] = tested on: human breast cancer cells MCF-7
Method: (§1) The anti-proliferative effect of peptides was tested using various normal and cancer cells. […] Normal cells used were NIH-3T3 (ATCC® CRL-1658), human normal endothelial cells (human umbilical vein endothelial cells, HUVEC) (ECACC, Sigma-Aldrich, Lyon, France), and human lung fibroblasts IMR-90 (ATCC® CCL186). NIH-3T3, HeLa, IMR-90, MDA-MB-231, and MCF-7 cells were grown in DMEM supplemented with 10% fetal bovine serum (FBS), 1% L-glutamine, and 1% antibiotics (all from Invitrogen (Carlsbad, CA, USA)). HUVEC cells were cultured in specific medium (endothelial cell growth medium from Sigma Aldrich, Lyon, France). Cells were routinely grown on 25 cm^2 flasks. For anti-proliferative assay, cells were detached from flasks using a trypsin-EDTA solution (from Thermofisher, Illkirch-Graffenstaden, France). After counting using a Malassez chamber, cells were diluted in appropriate culture media and seeded into 96-well cell culture plates (Greiner bio-one, Paris, France) at approximately 6000 cells/well. Cells were then treated with increasing concentration of conjugates diluted in appropriate medium. Doxorubicin was used as positive control. […] Briefly, after exposure to increasing concentrations of conjugates or doxorubicin for 48 h, cell viability was measured using the standard MTT or resazurin assay. For the MTT assay, the supernatant was discarded and 50 µL of 0.5 mg/mL MTT dye was then added to each well and plates were further incubated for 4 h at 37 °C. The MTT was aspirated and 100 µL of DMSO was then added to each well. The extent of MTT reduction to formazan in cells was calculated by measuring the absorbance at 540 nm, using a spectrophotometer (Spectra Max plus, Molecular Devices, CA, USA). For the resazurin assay, the supernatant was discarded and 100 µL of resazurin solution (from Sigma Aldrich, Lyon, France) was added to each well. After 4 h of incubation at 37 °C, fluorescence associated to resazurin biotransformation by live cells was measured using spectrofluorometer (excitation 530 nm/emission 590 nm). […]

[5] = tested on: human breast cancer cells MDA-MB-231; test: Anti-proliferative assay, MDA-MB-231; format: cell-based
Method: Cells were routinely grown on 25 cm^2 flasks. […] Doxorubicin was used as positive control. […] Experiment was performed in triplicate (n = 3).

[6] = tested on: mice normal 3T3 fibroblasts cells
Method: as §1

[7] = tested on: IMR-90 (normal human fibroblasts)
Method: as §1

[8] = tested on: HUVEC (human umbilical vein endothelial cells)
Method: as §1

[9] = tested on: HUVEC (human umbilical vein endothelial cells); test: cells; conditions: 48 h, read-out: IC50 (µg/mL) HUVEC
Method: as §1

[10] = tested on: human breast cancer cells MCF-7; test: cells; conditions: MCF7, 48 h, read-out: IC50 (µg/mL) MCF-7
Method: as §1

[11] = tested on: mice normal 3T3 fibroblasts cells; test: cells; conditions: Mus musculus, Fibroblast, 48 h, read-out: IC50 (µg/mL) 3T3
Method: as §1

[12] = tested on: IMR-90 (normal human fibroblasts); test: cells; conditions: IMR-90, 48 h, read-out: IC50 (µg/mL) IMR-90
Method: as §1

[13] = HeLa cells, MTT or resazurin, triplicate
[14] = HeLa cells, MTT or resazurin, read-out: IC50 ± SD (µM), proliferation of HeLa cells

C[C@H](NC(=O)[C@H](C)NC(=O)[C@H](Cc1ccc2ccccc2c1)NC(=O)c1ccco1)C(N)=O [Conjugate 3, 2-Fur^4-L-2-Nal^3-L-Ala^2-L-Ala^1-CONH2]
IC50 ± SD (µg/mL), proliferation of HeLa cells [1, 13]: 21.1 ± 0.60 µg/mL
IC50 [1, 14]: 46.8 ± 1.33 µM

C[C@H](NC(=O)[C@H](Cc1ccc2ccccc2c1)NC(=O)c1ccco1)C(=O)N[C@@H](Cc1ccccc1)C(N)=O [Conjugate 4, 2-Fur^4-L-2-Nal^3-L-Ala^2-L-Phe^1-CONH2]
rhodamine 123 fluorescence (mitochondrial membrane potential, MMP) ([2]; HeLa, 40 µg/mL, 1 or 2 h treatment): loss of mitochondrial membrane potential; also recorded: totally suppressed rhodamine fluorescence
PI dye fluorescence (membrane permeabilization) ([2]; HeLa, 20, 30 and 40 µg/mL, 1 or 2 h): increased
IC50 [1]: 0.28 ± 0.09 µM
IC50 ± SD (µg/mL), proliferation of HeLa cells [1]: 0.15 ± 0.05 µg/mL
effect on HeLa cell membrane seen by AFM [3]: membranolytic effect; also recorded: membranolytic affect
antiproliferative activity on MCF-7 (in words) ([4]; MCF-7): did not inhibit the proliferation
IC50 (µg/mL) MCF-7 ([4]; MCF-7, 48 h, mean ± SD of triplicates): >100 µg/mL
antiproliferative activity on MDA-MB-231 (in words) [5]: did not inhibit the proliferation
IC50 (µg/mL) MDA-MB-231 ([5]; MDA-MB-231, 48 h, mean ± SD of triplicates): >100 µg/mL
antiproliferative activity on MDA-MB-231 (in words) ([5]; listed as conjugate 4): inactive; also recorded: no effect
antiproliferative activity on 3T3 cells (in words) ([6]; 3T3): did not inhibit the proliferation
IC50 (µg/mL) 3T3 ([6]; 3T3, 48 h, mean ± SD of triplicates): >100 µg/mL
antiproliferative activity on IMR-90 (in words) ([7]; IMR-90): did not inhibit the proliferation
IC50 (µg/mL) IMR-90 ([7]; IMR-90, 48 h, mean ± SD of triplicates): >100 µg/mL
antiproliferative activity on HUVEC (in words) [8]: did not inhibit the proliferation
IC50 (µg/mL) HUVEC ([8]; 48 h, mean ± SD of triplicates): >100 µg/mL

C[C@H](NC(=O)[C@H](Cc1ccc2ccccc2c1)NC(=O)[C@H](Cc1ccccc1)NC(=O)c1ccco1)C(N)=O [Conjugate 6, 2-Fur^4-L-Phe^3-L-2-Nal^2-L-Ala^1-CONH2]
IC50 ± SD (µg/mL), proliferation of HeLa cells [1, 13]: 10.4 ± 0.10 µg/mL
IC50 [1, 14]: 19.74 ± 0.18 µM

C[C@H](NC(=O)[C@H](Cc1ccc2ccccc2c1)NC(=O)c1ccco1)C(=O)N[C@@H](Cc1ccccc1)C(=O)NCCCC[C@H](NC(=O)[C@H](Cc1ccccc1)NC(=O)[C@H](C)NC(=O)[C@H](Cc1ccc2ccccc2c1)NC(=O)c1ccco1)C(N)=O [Conjugate 4b] (2Furoyl-[2Nal]AFK([Phe-Ala-2Nal-2Furoyl])-NH2)
effect on MMP or membrane integrity of HeLa cells (rhodamine 123 / PI) ([2]; HeLa, data not shown): do not affect MMP or the membrane integrity
antiproliferative activity against HeLa cells (in words) ([1]; HeLa cells): inactive
IC50 ± SD (µg/mL), proliferation of HeLa cells [1, 13]: > 100 µg/mL

C[C@H](NC(=O)[C@H](Cc1ccccc1)NC(=O)[C@H](Cc1ccc2ccccc2c1)NC(=O)c1ccco1)C(N)=O [Conjugate 2, 2-Fur^4-L-2-Nal^3-L-Phe^2-L-Ala^1-CONH2]
IC50 ± SD (µg/mL), proliferation of HeLa cells [1, 13]: 4.40 ± 0.20 µg/mL
IC50 [1, 14]: 8.35 ± 0.37 µM

C[C@H](NC(=O)c1ccco1)C(=O)N[C@@H](Cc1ccc2ccccc2c1)C(=O)N[C@@H](Cc1ccccc1)C(N)=O [Conjugate 7, 2-Fur^4-L-Ala^3-L-2-Nal^2-L-Phe^1-CONH2]
IC50 ± SD (µg/mL), proliferation of HeLa cells [1, 13]: >100 µg/mL
IC50 [1, 14]: > 100 µM

C[C@H](NC(=O)[C@H](Cc1ccc2ccccc2c1)NC(=O)[C@H](Cc1ccc2ccccc2c1)NC(=O)c1ccco1)C(N)=O [Conjugate 5, 2-Fur^4-L-2-Nal^3-L-2-Nal^2-L-Ala^1-CONH2]
IC50 ± SD (µg/mL), proliferation of HeLa cells [1, 13]: 2.59 ± 0.30 µg/mL
IC50 [1, 14]: 4.49 ± 0.52 µM

COc1cccc2c1C(=O)c1c(O)c3c(c(O)c1C2=O)C[C@@](O)(C(=O)CO)C[C@@H]3O[C@H]1C[C@H](N)[C@H](O)[C@H](C)O1 [Doxorubicin]
IC50 [9]: 0.02 ± 0.005 µg/mL (≈ 0.0368 µM)
IC50 [10]: 0.01 ± 0.005 µg/mL (≈ 0.0184 µM)
IC50 ([1]; Homo sapiens, HeLa cells, MTT or resazurin, triplicate, read-out: IC50 ± SD (µg/mL), proliferation of HeLa cells): 3.09 ± 0.16 µg/mL
IC50 ([5]; Homo sapiens, MDA-MB-231, 48 h, mean ± SD of triplicates): 0.21 ± 0.03 µg/mL (≈ 0.386 µM)
IC50 [11]: < 1 µg/mL
IC50 [12]: 0.06 ± 0.01 µg/mL (≈ 0.11 µM)

C[C@H](NC(=O)[C@@H](NC(=O)[C@H](Cc1ccc2ccccc2c1)NC(=O)c1ccco1)c1ccccc1)C(N)=O [Conjugate 10, 2-Fur^4-L-2-Nal^3-L-Phg^2-L-Ala^1-CONH2]
IC50 ± SD (µg/mL), proliferation of HeLa cells [1, 13]: 4.70 ± 0.60 µg/mL
IC50 [1, 14]: 9.16 ± 1.17 µM

C[C@H](NC(=O)c1ccco1)C(=O)N[C@@H](Cc1ccccc1)C(=O)N[C@@H](Cc1ccc2ccccc2c1)C(N)=O [Conjugate 8, 2-Fur^4-L-Ala^3-L-Phe^2-L-2-Nal^1-CONH2]
IC50 ± SD (µg/mL), proliferation of HeLa cells [1, 13]: 29.1 ± 2.8 µg/mL
IC50 [1, 14]: 55.3 ± 5.31 µM

C[C@H](NC(=O)[C@H](Cc1ccc(O)cc1)NC(=O)[C@H](Cc1ccc2ccccc2c1)NC(=O)c1ccco1)C(N)=O [Conjugate 9, 2-Fur^4-L-2-Nal^3-L-Tyr^2-L-Ala^1-CONH2]
IC50 ± SD (µg/mL), proliferation of HeLa cells [1, 13]: 19.2 ± 3.2 µg/mL
IC50 [1, 14]: 35.4 ± 5.89 µM
